Data as given in PMC11530689, “Anti colorectal cancer activity and in silico studies of novel pyridine nortopsentin analog as cyclin dependent kinase 6 inhibitor” (Scientific Reports, 2024).

Experiments:
Assay in all cases: NCI 60 cell line screen
Assay type in all cases: cell-based
[1] = tested on: DU-145; conditions: DU-145, Prostate Cancer; single concentration 10^−5 M
Description: (§1) The cytotoxic activity of nortopsintin analogs (4a-4j) was determined by the national cancer institute (NCI, Bethesda, Maryland, USA) against 60 different cancer cell lines at a single concentration of (10^-5 M). For the determination of IC50 value, we used MTT assay kit (Sigma) according to the manufacturer's protocol. HCT-116 cells were seeded into a 96-well plate at a concentration of 20,000 cells/well. After 24 h, the media was aspirated and replaced with serum-free media containing serial dilutions of the 4i compound. […] The percentage of cytotoxicity was calculated using the following equation: % Cytotoxicity = [1 - ([…])] × 100.

[2] = tested on: HCC-2998; conditions: HCC-2998, Colon Cancer; single concentration 10^−5 M
Description: as §1

[3] = tested on: RPMI-8226; conditions: RPMI-8226, Leukemia; single concentration 10^−5 M
Description: as §1

[4] = tested on: U251; conditions: U251, CNS Cancer; single concentration 10^−5 M
Description: as §1

[5] = tested on: OVCAR-3; conditions: OVCAR-3, Ovarian Cancer; single concentration 10^−5 M
Description: as §1

[6] = tested on: SF-295; conditions: SF-295, CNS Cancer; single concentration 10^−5 M
Description: as §1

[7] = tested on: MDA-MB-468; conditions: MDA-MB-468, Breast Cancer; single concentration 10^−5 M
Description: as §1

[8] = tested on: COLO205; conditions: COLO205, Colon Cancer; single concentration 10^−5 M
Description: as §1

[9] = tested on: OVCAR-4; conditions: OVCAR-4, Ovarian Cancer; single concentration 10^−5 M
Description: as §1

[10] = tested on: NCI/ADR-RES; conditions: Ovarian Cancer, single concentration 10^−5 M
Description: as §1

[11] = tested on: OVCAR-8; conditions: OVCAR-8, Ovarian Cancer; single concentration 10^−5 M
Description: as §1

[12] = tested on: MALME-3M; conditions: Melanoma, single concentration 10^−5 M
Description: as §1

[13] = tested on: SR; conditions: Leukemia, single concentration 10^−5 M
Description: as §1

[14] = tested on: MCF7; conditions: MCF7, Breast Cancer; single concentration 10^−5 M
Description: as §1

[15] = tested on: A498; conditions: A498, Renal Cancer; single concentration 10^−5 M
Description: as §1

[16] = tested on: MDA-MB-231/ATCC; conditions: Breast Cancer, single concentration 10^−5 M
Description: as §1

[17] = tested on: CCRF-CEM; conditions: Leukemia, single concentration 10^−5 M
Description: as §1

[18] = tested on: ACHN; conditions: Renal Cancer, single concentration 10^−5 M
Description: as §1

[19] = tested on: SNB-19; conditions: SNB-19, CNS Cancer; single concentration 10^−5 M
Description: as §1

[20] = tested on: NCI-H23; conditions: NCI-H23, Non-Small Cell Lung Cancer; single concentration 10^−5 M
Description: as §1

[21] = tested on: UACC-62; conditions: UACC-62, Melanoma; single concentration 10^−5 M
Description: as §1

[22] = tested on: K-562; conditions: K-562, Leukemia; single concentration 10^−5 M
Description: as §1

[23] = tested on: SK-MEL-5; conditions: SK-MEL-5, Melanoma; single concentration 10^−5 M
Description: as §1

[24] = tested on: SK-OV-3; conditions: SK-OV-3, Ovarian Cancer; single concentration 10^−5 M
Description: as §1

[25] = tested on: 786-0; conditions: 786-0, Renal Cancer; single concentration 10^−5 M
Description: as §1

[26] = tested on: PC-3; conditions: PC-3, Prostate Cancer; single concentration 10^−5 M
Description: as §1

[27] = tested on: KM12; conditions: KM12, Colon Cancer; single concentration 10^−5 M
Description: as §1

[28] = tested on: CAKI-1; conditions: CAKI-1, Renal Cancer; single concentration 10^−5 M
Description: as §1

[29] = tested on: TK-10; conditions: TK-10, Renal Cancer; single concentration 10^−5 M
Description: as §1

[30] = tested on: SK-MEL-2; conditions: SK-MEL-2, Melanoma; single concentration 10^−5 M
Description: as §1

[31] = tested on: NCI-H522; conditions: NCI-H522, Non-Small Cell Lung Cancer; single concentration 10^−5 M
Description: as §1

[32] = tested on: A549/ATCC; conditions: Non-Small Cell Lung Cancer, single concentration 10^−5 M
Description: as §1

[33] = tested on: T-47D; conditions: Breast Cancer, single concentration 10^−5 M
Description: as §1

[34] = tested on: SF-268; conditions: SF-268, CNS Cancer; single concentration 10^−5 M
Description: as §1

[35] = tested on: RXF 393; conditions: RXF 393, Renal Cancer; single concentration 10^−5 M
Description: as §1

[36] = tested on: SW-620; conditions: SW-620, Colon Cancer; single concentration 10^−5 M
Description: as §1

[37] = tested on: NCI-H226; conditions: NCI-H226, Non-Small Cell Lung Cancer; single concentration 10^−5 M
Description: as §1

N#Cc1c(-c2ccc(O)cc2)cc(-c2c[nH]c3ccccc23)nc1-c1c[nH]c2ccccc12 [4j]
Growth % [1]: 104.31%
Growth % [2]: 126.05%
Growth % [3]: 101.54%
Growth % [4]: 96.90%
Growth % [5]: 92.93%
Growth % [6]: 87.00%
Growth % [7]: 101.94%
Growth % [8]: 111.37%
Growth % [9]: 94.07%
Growth % [10]: 102.41%
Growth % [11]: 99.60%
Growth % [12]: 114.20%
Growth % [13]: 76.19%
Growth % [14]: 87.55%
Growth % [15]: 110.66%
Growth % [16]: 92.33%
Growth % [17]: 76.51%
Growth % [18]: 72.15%
Growth % [19]: 108.35%
Growth % [20]: 89.30%
Growth % [21]: 96.73%
Growth % [22]: 67.98%
Growth % [23]: 84.85%
Growth % [24]: 96.54%
Growth % [25]: 101.37%
Growth % [26]: 98.38%
Growth % [27]: 96.89%
Growth % [28]: 90.60%
Growth % [29]: 149.07%
Growth % [30]: 100.11%
Growth % [31]: 85.59%
Growth % [32]: 105.12%
Growth % [33]: 98.31%
Growth % [34]: 105.02%
Growth % [35]: 83.24%
Growth % [36]: 108.39%
Growth % [37]: 86.10%
